Experimental data: BindingDB's records for doi:10.1016/j.bmcl.2010.11.016 (Chosun University, 2011)

Experiments:
[1] = tested on: Influenza A H9N2 virus neuraminidase; assay: Inhibition of Influenza A H9N2 virus neuraminidase activity after 2 hrs by spectrofluorometry
[2] = tested on: wild type H1N1 swine influenza virus neuraminidase; assay: Inhibition of wild type H1N1 swine influenza virus neuraminidase activity expressed in HEK293T cells after 2 hrs by spectrofluorometry

O=C(C=Cc1ccc(O)cc1)c1ccc(O)cc1O
IC50 [1]: 37.8 µM | IC50 [2]: 13.6 µM
